Data on one compound can be found in patent publication US12479879B2, “Method for preparing disodium 5′-guanylate heptahydrate crystal” (CJ CHEILJEDANG CORPORATION, priority 2019, dated 2025).

This data set is described as follows: Solubility of 5′-guanylic acid in aqueous sodium chloride solutions (saturated mixed solution, supernatant concentration). The note with it: for Concentration of 5′-Guanylic acid in mixed solution: 25° C.; for 5′-Guanylic acid concentration (g/L) in mixed solution: 40° C.; for solubility thermodynamic: aqueous sodium chloride solution, saline or isotonic.
[1] abbreviates: sodium chloride concentration 300 g/L, supernatant of saturated solution.
Where [2] appears, read: sodium chloride concentration 310 g/L, supernatant of saturated solution.
[3] abbreviates: sodium chloride concentration 350 g/L, supernatant of saturated solution.
[4] abbreviates: sodium chloride concentration 360 g/L, supernatant of saturated solution.
Where [5] appears, read: sodium chloride concentration 400 g/L, sodium chloride crystals precipitated.

Converted amounts (≈) assume the structure as drawn.

A word on the solubility (thermodynamic): it is the concentration in solution at equilibrium with solid.

Protocol: With the aqueous 5′-guanylic acid solution added to different concentrations of aqueous sodium chloride solutions at temperature 40° C. and 25° C., the solubility of 5′-guanylic acid was examined.
Specifically, the aqueous 5′-guanylic acid solution was sufficiently dissolved in each of the aqueous sodium chloride solutions at 40° C. and 25° C., respectively, to prepare saturated solutions. As a result, 160 g/L to 360 g/L saturated solution of sodium chloride were prepared. […] Then, the concentrations (g/L) of 5′-guanylic acid in supernatants obtained by centrifuging each of the saturated solutions, i.e., the mixed solutions were measured.

With `Nc1nc2c(ncn2[C@@H]2O[C@H](COP(=O)(O)O)[C@@H](O)[C@H]2O)c(=O)[nH]1` [5′-Guanylic acid, 5′-guanylic acid], the “Concentration of 5′-Guanylic acid in mixed solution” value (from here on “Concentration of 5′-Guanylic acid”) under setting [1] stood at 18100 µg/mL; the “Concentration of 5′-Guanylic acid” value under setting [2] came to 18200 µg/mL; the “Concentration of 5′-Guanylic acid” value under setting [3] stood at 18200 µg/mL; the “Concentration of 5′-Guanylic acid” value under setting [4] was found to be 18200 µg/mL; the “Concentration of 5′-Guanylic acid” value under setting [5] was 18300 µg/mL. Also, the “5′-Guanylic acid concentration (g/L) in mixed solution” value by setting is: under setting [1], 49.9 g/L; under setting [2], 49.5 g/L; under setting [3], 48.9 g/L; under setting [4], 49.8 g/L; under setting [5], 49.6 g/L. Further, the thermodynamic solubility stood at 40.1 mg/mL (≈ 110 mM) (25 °C, Concentration of 5′-Guanylic acid in mixed solution (g/L), sodium chloride concentration 160 g/L, supernatant of saturated solution); 26.4 mg/mL (≈ 72.7 mM) (25 °C, Concentration of 5′-Guanylic acid in mixed solution (g/L), sodium chloride concentration 200 g/L, supernatant of saturated solution); 22.2 mg/mL (≈ 61.1 mM) (25 °C, Concentration of 5′-Guanylic acid in mixed solution (g/L), sodium chloride concentration 230 g/L, supernatant of saturated solution); 19.2 mg/mL (≈ 52.9 mM) (25 °C, Concentration of 5′-Guanylic acid in mixed solution (g/L), sodium chloride concentration 280 g/L, supernatant of saturated solution); 18.2 mg/mL (≈ 50.1 mM) (25 °C, Concentration of 5′-Guanylic acid in mixed solution (g/L), sodium chloride concentration 420 g/L, sodium chloride crystals precipitated); 86.5 mg/mL (≈ 238 mM) (40 °C, 5′-Guanylic acid concentration (g/L) in mixed solution, sodium chloride concentration 160 g/L, supernatant of saturated solution). The compound further registered a thermodynamic solubility (40 °C, 5′-Guanylic acid concentration (g/L) in mixed solution, sodium chloride concentration 200 g/L, supernatant of saturated solution) of 62.7 mg/mL (≈ 173 mM); a thermodynamic solubility (40 °C, 5′-Guanylic acid concentration (g/L) in mixed solution, sodium chloride concentration 230 g/L, supernatant of saturated solution) of 57.1 mg/mL (≈ 157 mM); a solubility (thermodynamic) (40 °C, 5′-Guanylic acid concentration (g/L) in mixed solution, sodium chloride concentration 280 g/L, supernatant of saturated solution) of 50.1 mg/mL (≈ 138 mM); a solubility (thermodynamic) (40 °C, 5′-Guanylic acid concentration (g/L) in mixed solution, sodium chloride concentration higher than 400 g/L, sodium chloride crystals precipitated) of 48.7 mg/mL (≈ 134 mM).
